What was measured:
Type in all cases: cell-based
[1] = tested on: Klebsiella pneumoniae; test: In vitro inhibition in nutrient broth, Klebsiella pneumoniae; conditions: no growth by 48 hours; inoculum 0.2 ml of 1/10,000 dilution of overnight culture
Procedure: (§1) In these tests bacterial growth was measured or observed by turbidity in the test tubes containing the inoculated nutrient broth after 18-20 hours incubation at 37° C.
(§2) *Concentration -- μM/ml which permitted no growth by 48 hours.
(§3) Inoculum = 0.2 ml of 1/10,000 dilution of overnight culture.

[2] = tested on: Pseudomonas aeruginosa; test: In vitro inhibition in nutrient broth, Pseudomonas aeruginosa; conditions: no growth by 48 hours; inoculum 0.2 ml of 1/10,000 dilution of overnight culture
Procedure: as §1, §2, §3

[3] = tested on: Esch. coli; test: In vitro inhibition in nutrient broth, Esch. coli; conditions: no growth by 48 hours; inoculum 0.2 ml of 1/10,000 dilution of overnight culture
Procedure: as §1, §2, §3

[4] = tested on: Staph. aureus; test: In vitro inhibition in nutrient broth, Staph. aureus; conditions: no growth by 48 hours; inoculum 0.2 ml of 1/10,000 dilution of overnight culture
Procedure: as §1, §2, §3

[5] = tested on: bacterial growth; test: Inhibition of bacterial growth in nutrient broth (turbidity), organism not specified; conditions: 18-20 hours incubation at 37° C.
Procedure: as §1

Row | SMILES | Inhibitory concentration, Klebsiella pneumoniae [1] | Inhibitory concentration, Pseudomonas aeruginosa [2] | Inhibitory concentration, Esch. coli [3] | Inhibitory concentration, Staph. aureus [4] | concentration inhibiting bacterial growth [5]
1 | O=[N+]([O-])[O-].[Ag+] [Silver nitrate, silver nitrate] | 0.1 μM per ml | 0.025 μM per ml | 0.005 μM per ml | 0.005 μM per ml | –
2 | O=[N+]([O-])[O-].O=[N+]([O-])[O-].O=[N+]([O-])[O-].[Ce+3] [Cerous nitrate, cerous nitrate] | 5.0 μM per ml | 2.5 μM per ml | 2.5 μM per ml | 5.0 μM per ml | at least 1.0 μM per ml

— patent US4078058A (priority 1976, dated 1978)
